Test results taken from patent US20240285643A1, “TREATING INFLUENZA USING SUBSTITUTED POLYCYCLIC PYRIDONE DERIVATIVES AND PRODRUGS THEREOF IN A SUBJECT HAVING INFLUENZA AND A SEVERE INFLUENZA CONDITION” (Shionogi & Co., Ltd., priority 2019, published 2024).

Legend:
[1] = SD, rat, in vivo
[2] = set-up: species or system rats; conditions: rat, po
Text: FIGS. 1 and 2 show a result of measuring the plasma concentration of Compound (III) and Compound (II-6), respectively, after oral administration of prodrug Compound (II-6) to rats under non-fasting conditions.

[3] = system: influenza type A virus A/Osaka/129/2009 and Streptococcus pneumoniae SR1326; type: in vivo, BALB/c mice; conditions: for mice survived: BXA 10 mg/kg sc single dose, OSP 10 mg/kg po bid 5 days, through 15 days
[4] = system: influenza type A virus A/Osaka/129/2009 and Streptococcus pneumoniae SR1326; type: in vivo, BALB/c mice; conditions: for mice recovered from body weight loss and survived: BXA 10 mg/kg sc single dose, OSP 10 mg/kg po bid 5 days
clinical = conditions: human, in vivo
Protocol: Patients were administered up to three doses of baloxavir marboxil separated by 3 days (i.e., Days 1, 4, and 7). […] Likewise, total drug exposure simulated on Day 7 area under the plasma concentration-time curve for a dosing interval (AUCtau) was not expected to exceed area under the concentration-time curve from Time 0 to infinity (AUCinf) of the TQT, regardless of dose.

COC(=O)OCOc1c2n(ccc1=O)N([C@@H]1c3ccccc3SCc3c1ccc(F)c3F)[C@@H]1COCCN1C2=O [II-6, baloxavir marboxil]
BA (%) [1]: 14.9% | conversion of prodrug to Compound (III) in vivo [2]: metabolized promptly to Compound (III)

baloxavir marboxil [II-6]
body weight change after virus infection ([3]; 2-day delayed treatment, compared with vehicle, OSP or monotherapy): less reduction of body weight

CC(=O)Oc1c2n(ccc1=O)N([C@@H]1c3ccccc3SCc3c1ccc(F)c3F)[C@@H]1COCCN1C2=O [II-4]
BA (%) [1]: 20.0%

O=C1c2c(O)c(=O)ccn2N([C@@H]2c3ccccc3SCc3c2ccc(F)c3F)[C@@H]2COCCN12 [III, baloxavir]
mice recovered from body weight loss and survived [4]: 40% | BA (%) [1]: 4.2% | mice survived [3]: 75% | Cmax (clinical): 126 ng/mL | half-life (clinical): ~2.92 days

CCOC(=O)C1=C[C@@H](OC(CC)CC)[C@H](NC(C)=O)[C@@H](N)C1 [OSP, Oseltamivir phosphate, reference compound]
mice recovered from body weight loss and survived [4]: all mice died | efficacy on survival ([4]; mouse, in vivo): not effective | survival time compared with vehicle treatment ([3]; 2-day delayed treatment, log rank test): significantly prolonged | mice survived [3]: all mice died
